Assay [1] has as its system pseudomonas aeruginosa. The assay is described as follows: Recovery from dry inflammation in rabbit eye, pseudomonas aeruginosa. The assay is classed as in vivo. As for the experimental part:
(§1) Studies were carried out with hyaluronic acid salts of the antibiotics: streptomycin, erythromycin, neomycin and gentamicin. The salts utilized are the total salts in which all of the acid groups of hyaluronic acid are salified with a basic group of the antibiotic and prepared according to the procedures described hereinabove in Examples 1, 2, 4 and 5.
(§2) For administration, preparations were utilized comprising solutions of the HY drug complex in distilled water, having concentrations suitable to the antibiotic content:
(§3) The activity of the above HY salts was compared to that given by the same antibiotics dissolved in phosphate buffer and having the same concentrations of antibiotic. The activity of the two groups of products was measured on the basis of the time necessary to suppress a dry inflammation of the rabbit eye induced by a bacterial agent.
(§4) More precisely, the dry inflammation was determined in both eyes of 24 rabbits by intraocular injection of the titered suspension of one of the following bacterial groups: pseudomonas aeruginosa, staphylococcus aureus, salmonella typhi (0.1 ml). The various saline derivatives of the antibiotics were administered (3 drops every 6 hours) into the right eye (RE) of the rabbits, while into the left eye (LE) were instilled the corresponding quantities of the antibiotics dissolved in phosphate buffer. The treatment was begun immediately after injectin of the bacterial suspension and was continued until inflammation disappeared.
(§5) In particular the following were examined: the state of the conjuntiva and the corneal epithelium, anterior chamber (presence of the Tyndall effect), the state of the iris of the posterior segment of the eye. The state of the back of the eye was examined with a Goldman lens. The presence of signs of inflammation (hyperemia, exudates, cloudiness of the liquids etc.) was registered.

In assay [2] the test system is rabbit eye. Put plainly: Anti-inflammatory activity of triamcinolone vehicled in hyaluronic acid, dextran-induced intraocular inflammation. Format: in vivo, rabbit (male New Zealand). Conditions: for Evaluated Score, Conjunctiva / Evaluated Score, Cornea / Evaluated Score, Iris / Evaluated Score, Tyndall: score 0 to 3. As for the experimental part:
The experiments were carried out on male New Zealand rabbits (average weight 1.6 kg). After an adaption period of 5 days, introocular inflammation was induced in the rabbits by intraocular injection of dextran (10%, 0.1 ml). The administration was effected in both eyes under local anaesthetic with 4% Novesina, inserting the needle of the syringe at the edge of the cornea in the anterior chamber at a distance of 2 mm. The test was conducted on 10 animals.
Treatment was effected in each animal both in the right and left eyes, by instillation of 3 drops 3 times a day for 6 days in all, of the following:
a solution of triamcinolone (10% in saline) in the left eye (LE);
a solution of hyaluronic acid sodium salt, HYALECTIN fraction, (10 mg/ml)+triamcinolone phosphate (10%) in the right eye (RE).
The anti-inflammatory effect on the reaction induced by dextran was evaluated by observing the eye with a slit lamp at the following intervals: 0, 1 hr, 3 hr, 24 hr, 48 hr, 3 days, 4 days, 5 days and 6 days.
At the intervals, the eye examination evaluated the following observations:
the state of the cornea and conjunctiva for the possible presence of hypermia, edema, and especially observation of the iris which is normally sensitive to inflammatory processes after injection of inflammatory agents into the anterior chamber;
the Tyndall effect, in which the presence of opacity of varying intensity ("nubecula") is indicative of the presence of corpuscular (inflammatory) elements in the anterior chamber.
The result of the observation was expressed in terms of subjective scoring (from 0 to 3) related to the gradualness of the effect noted.

Assay [3] has as its system Bacillus subtillis ATCC 6633. The assay is described as follows: Antimicrobial activity of streptomycin sulphate vehicled in hyaluronic acid, agar diffusion. The assay is classed as cell-based, Bacillus subtilis. As for the experimental part: A solution of the two components (60 g hyaluronic acid sodium salt and 40 g streptomycin sulphate) was prepared and then freeze-dried.
The antimicrobial activity of the formulation of streptomycin in hyaluronic acid sodium salt, HYALASTINE fraction, was controlled by microbial assay by agar diffusion, based on the reading after a suitable period of incubation at 32° C., and on a comparison of the diameters of the microorganism's inhibition zones (Bacillus subtillis ATCC 6633) determined on the presumed concentrations of the antibiotic under examination and on the corresponding and known concentrations of the working standard.
After 18 hours of incubation of the assay plate at 32° C., it was observed that streptomycin vehicled in
The results (Table 11) were obtained by measuring the diameter of microbial inhibition zones at working concentrations of 20 and 5 UI/ml, and expressed in units of antimicrobial activity per miligram of the mixture compared to streptomycin sulphate.
On the technique in general: In agar diffusion tests the substance spreads into inoculated agar from a disc or well.

Assay [4] deals with staphylococcus aureus. Put plainly: Recovery from dry inflammation in rabbit eye, staphylococcus aureus. Format: in vivo. As for the experimental part:
as §1, §2, §3, §4, §5

Assay [5] deals with salmonella typhi. The assay is described as follows: Recovery from dry inflammation in rabbit eye, salmonella typhi. The assay is classed as in vivo. As for the experimental part:
as §1, §2, §3, §4, §5

Where [6] appears, read: day 1, pseudomonas aeruginosa, 3 drops every 6 hours, 6 eyes.

Turning to `[H]/N=C(/N)N[C@H]1[C@H](O)[C@@H](O)[C@H](O[C@@H]2O[C@@H](C)[C@](O)(C=O)[C@H]2O[C@@H]2O[C@@H](CO)[C@H](O)[C@@H](O)[C@@H]2NC)[C@@H](N/C(N)=N\[H])[C@@H]1O` [Streptomycin, streptomycin], the “percentage of eyes which did not present any signs of inflammation” value in assay [1] (setting [6]) stood at 0.0%; in assay [1] (day 2, pseudomonas aeruginosa), 0.0%; in assay [1] (day 3, pseudomonas aeruginosa) it was 0.0%; in assay [1] (day 4, pseudomonas aeruginosa), 0.0%; in assay [1] (day 5, pseudomonas aeruginosa), 0.0%; in assay [1] (day 6, pseudomonas aeruginosa) it was 16.6%. In addition, the “percentage of eyes which did not present any signs of inflammation” value in assay [1] (day 7, pseudomonas aeruginosa) was 50.0%; in assay [1] (day 8, pseudomonas aeruginosa) it was 100.0%.

In the case of `C[C@]12C=CC(=O)C=C1CC[C@H]1[C@@H]3C[C@@H](O)[C@](O)(C(=O)CO)[C@@]3(C)C[C@H](O)[C@@]12F` [triamcinolone], the “Evaluated Score, Conjunctiva” value in assay [2] (0) was 0.0; in assay [2] (1 hour), 0.2; in assay [2] (3 hours) it was 0.0; in assay [2] (24 hours), 0.0; in assay [2] (48 hours), 0.0; in assay [2] (3 days), 0.0. Further, the “Evaluated Score, Conjunctiva” value in assay [2] (4 days), in assay [2] (5 days) and in assay [2] (6 days) was 0.0 throughout. Further, the “Evaluated Score, Cornea” value in assay [2] (0) is on record as 0.0; in assay [2] (1 hour), 1.0; in assay [2] (3 hours), 0.0; in assay [2] (24 hours), 0.1; in assay [2] (48 hours), 0.0; in assay [2] (3 days), 0.0. Also, the “Evaluated Score, Cornea” value in assay [2] (4 days), in assay [2] (5 days) and in assay [2] (6 days) was 0.0 each time. Also, the “Evaluated Score, Iris” value is recorded as 0.0 in assay [2] (0); 0.5 in assay [2] (1 hour); 2.7 in assay [2] (3 hours); 3.0 in assay [2] (24 hours); 3.0 in assay [2] (48 hours); 3.0 in assay [2] (3 days). Further, the “Evaluated Score, Iris” value in assay [2] (4 days) is 2.4; in assay [2] (5 days), 1.5; in assay [2] (6 days), 0.5. The “Evaluated Score, Tyndall” value in assay [2] (0) is recorded as 0.0; in assay [2] (1 hour), 1.0; in assay [2] (3 hours), 3.0; in assay [2] (24 hours), 3.0; in assay [2] (48 hours), 3.0; in assay [2] (3 days), 3.0. Moreover, the “Evaluated Score, Tyndall” value in assay [2] (4 days) is on record as 2.2; in assay [2] (5 days), 1.2; in assay [2] (6 days) it was 0.4. In assay [2] (dextran-induced intraocular inflammation), the “anti-inflammatory effect (in words)” value is given as “almost normal conditions are restored, with perfect limpidness of the eye by the 6th day”.

Regarding `[H]/N=C(/N)N[C@H]1[C@H](O)[C@@H](O)[C@H](O[C@@H]2O[C@@H](C)[C@](O)(C=O)[C@H]2O[C@@H]2O[C@@H](CO)[C@H](O)[C@@H](O)[C@@H]2NC)[C@@H](N/C(N)=N\[H])[C@@H]1O` [Streptomycin sulphate, streptomycin sulphate], the “antimicrobial activity, Theoretical” value in assay [3] is recorded as 750 UI/MG. The “antimicrobial activity, Effective” value in assay [3] (18 hours, 32° C., 20 and 5 UI/ml) was 750 UI/MG. In assay [3] (values in parenthesis), the “antimicrobial activity, Effective (as streptomycin sulphate content)” value is 1000 mg/gr and the “antimicrobial activity, Theoretical (as streptomycin sulphate content)” value was 1000 mg/gr.

Take gentamicin [Gentamycin]: the “percentage of eyes which did not present any signs of inflammation” value in assay [1] (setting [6]) worked out at 0.0%; in assay [1] (day 2, pseudomonas aeruginosa), 0.0%; in assay [1] (day 3, pseudomonas aeruginosa), 0.0%; in assay [1] (day 4, pseudomonas aeruginosa), 0.0%; in assay [1] (day 5, pseudomonas aeruginosa), 0.0%; in assay [1] (day 6, pseudomonas aeruginosa) it was 33.3%. The “percentage of eyes which did not present any signs of inflammation” value in assay [1] (day 7, pseudomonas aeruginosa) was 50.0%; in assay [1] (day 8, pseudomonas aeruginosa) it was 100.0%.

For the molecule `CC[C@H]1OC(=O)[C@H](C)[C@@H](O[C@H]2C[C@@](C)(OC)[C@@H](O)[C@H](C)O2)[C@H](C)[C@@H](O[C@@H]2O[C@H](C)C[C@H](N(C)C)[C@H]2O)[C@](C)(O)C[C@@H](C)C(=O)[C@H](C)[C@@H](O)[C@]1(C)O` [Erthromycin, erythromycin], the “percentage of eyes which did not present any signs of inflammation” value in assay [4] (day 1, staphylococcus aureus, 3 drops every 6 hours, 6 eyes) was 0.0%; in assay [4] (day 2, staphylococcus aureus), 0.0%; in assay [4] (day 3, staphylococcus aureus), 0.0%; in assay [4] (day 4, staphylococcus aureus) it was 0.0%; in assay [4] (day 5, staphylococcus aureus) it was 0.0%; in assay [4] (day 6, staphylococcus aureus), 0.0%. Moreover, the “percentage of eyes which did not present any signs of inflammation” value was found to be 16.6% in assay [4] (day 7, staphylococcus aureus) and 33.3% in assay [4] (day 8, staphylococcus aureus).

For neomycin, the “percentage of eyes which did not present any signs of inflammation” value in assay [5] (day 1, salmonella typhi, 3 drops every 6 hours, 6 eyes) came to 0.0%; in assay [5] (day 2, salmonella typhi) it was 0.0%; in assay [5] (day 3, salmonella typhi), 0.0%; in assay [5] (day 4, salmonella typhi) it was 0.0%; in assay [5] (day 5, salmonella typhi) it was 0.0%; in assay [5] (day 6, salmonella typhi) it was 0.0%. For the same molecule, the “percentage of eyes which did not present any signs of inflammation” value is 16.6% in assay [5] (day 7, salmonella typhi) and 33.3% in assay [5] (day 8, salmonella typhi).

(Values after US5442053A, “Salts and mixtures of hyaluronic acid with pharmaceutically active substances, pharmaceutical compositions containing the same and methods for administration of such compositions” (Fidia, S.p.A., priority 1983, dated 1995).)
